Test results from paper PMC3116082 (Journal of the American Chemical Society, 2011).

Legend:
Assay type in all cases: biochemical
[1] = target: T1, ThiSG (thiazole synthase) (Bacillus subtilis, UniProt O31618); test: thiazole reconstitution, strong anion exchange HPLC; settings: without TenI; ThiF, NifS, ThiO, cysteine, ATP, glycine, DXP
T1 sequence (O31618 1-256): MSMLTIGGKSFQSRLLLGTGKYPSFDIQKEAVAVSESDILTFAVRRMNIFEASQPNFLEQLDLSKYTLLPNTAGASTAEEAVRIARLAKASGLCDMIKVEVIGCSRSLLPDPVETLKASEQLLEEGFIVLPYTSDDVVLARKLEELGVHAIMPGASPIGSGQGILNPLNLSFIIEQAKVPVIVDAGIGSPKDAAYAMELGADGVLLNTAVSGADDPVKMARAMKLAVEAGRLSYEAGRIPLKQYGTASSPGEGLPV
T1 sequence (O31617 1-66 partner): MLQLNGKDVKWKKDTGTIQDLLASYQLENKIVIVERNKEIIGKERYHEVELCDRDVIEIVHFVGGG

ThiO = target: T2, ThiO (Bacillus subtilis, UniProt O31616); test: H2O2 formation, HRP-coupled absorbance at […] nm; settings: 0.1-10 mM glycine, without TenI
T2 sequence (O31616 1-369): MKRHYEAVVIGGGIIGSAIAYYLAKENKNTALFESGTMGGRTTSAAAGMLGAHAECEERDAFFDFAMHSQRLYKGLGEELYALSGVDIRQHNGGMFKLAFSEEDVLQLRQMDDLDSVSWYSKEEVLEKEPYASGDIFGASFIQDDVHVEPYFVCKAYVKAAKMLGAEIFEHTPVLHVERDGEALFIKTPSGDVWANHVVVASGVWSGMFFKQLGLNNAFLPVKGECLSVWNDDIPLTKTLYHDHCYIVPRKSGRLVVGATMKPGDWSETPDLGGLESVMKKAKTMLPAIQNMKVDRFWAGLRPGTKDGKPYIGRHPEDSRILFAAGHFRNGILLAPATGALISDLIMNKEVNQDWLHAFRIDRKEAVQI

[2] = target: thiamin phosphate synthase (ThiE) (Bacillus subtilis, UniProt P39594); test: thiochrome assay, HPLC with fluorescence detection; settings: co-substrate HMP-PP
Sequence of thiamin phosphate synthase (ThiE) (P39594 whole entry): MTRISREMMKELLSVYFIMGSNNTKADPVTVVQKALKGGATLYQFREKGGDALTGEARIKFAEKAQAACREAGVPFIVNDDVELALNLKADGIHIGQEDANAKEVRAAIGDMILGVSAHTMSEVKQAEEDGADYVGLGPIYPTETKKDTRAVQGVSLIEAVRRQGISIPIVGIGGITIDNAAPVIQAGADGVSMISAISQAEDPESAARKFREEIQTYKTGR

## CC1=N[C@@H](C(=O)O)S/C1=C\COP(=O)(O)O [compound 14, (R,Z)-2-(2-carboxy-4-methylthiazol-5(2H)-ylidene)ethyl phosphate]
[1]
  thiazole reconstitution, strong anion exchange HPLC: In the absence of TenI, cThz*-P was the only thiazole product formed

## NCC(=O)O [compound 19, glycine]
ThiO
  H2O2 formation, HRP-coupled absorbance at 500 nm: the rate of hydrogen peroxide production with increasing concentrations of glycine was unaffected by TenI

## Cc1nc(C(=O)O)sc1CCOP(=O)(O)O [compound 16, 2-(2-carboxy-4-methylthiazol-5-yl)ethyl phosphate]
[2]
  thiochrome assay, HPLC with fluorescence detection: cThz-P and Thz-P are significantly better substrates than cThz*-P

## Cc1ncsc1CCOP(=O)(O)O [compound 15, 2-(4-methylthiazol-5-yl)ethyl phosphate]
[2]
  thiochrome assay, HPLC with fluorescence detection: cThz-P and Thz-P are significantly better substrates than cThz*-P
